# US20250250230A1, “HETEROCYCLIC COMPOUND” (TAKEDA PHARMACEUTICAL COMPANY LIMITED, priority 2022, published 2025)
# Biological target: T1, human orexin type 2 receptor (Homo sapiens, UniProt O43614)
# T1 construct: expressed in transfected cells
# T1 sequence (O43614 1-444): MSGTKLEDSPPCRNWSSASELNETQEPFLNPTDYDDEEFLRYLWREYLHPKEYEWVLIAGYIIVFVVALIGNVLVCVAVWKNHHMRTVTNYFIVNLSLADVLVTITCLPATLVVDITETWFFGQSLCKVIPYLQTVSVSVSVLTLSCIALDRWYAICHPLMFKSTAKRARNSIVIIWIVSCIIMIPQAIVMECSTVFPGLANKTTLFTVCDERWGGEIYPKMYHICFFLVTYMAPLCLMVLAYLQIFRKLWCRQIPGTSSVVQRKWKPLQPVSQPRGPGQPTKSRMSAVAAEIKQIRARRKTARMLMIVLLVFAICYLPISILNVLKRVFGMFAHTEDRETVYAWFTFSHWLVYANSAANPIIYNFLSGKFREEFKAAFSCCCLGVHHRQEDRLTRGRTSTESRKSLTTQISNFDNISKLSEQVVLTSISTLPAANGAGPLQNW
# Experiment: Measurement of orexin type 2 receptor agonist activity (calcium fluorescence, Fluo-4 AM, FDSS)
# Type: cell-based
# Conditions: test compound 3 μM; CHO cells expressing human OX2 receptor; DMSO = 0%, orexin A (human) = 100%
# Description: To obtain a cell clone stably expressing human orexin type 2 receptor, human orexin type 2 receptor cDNA was inserted into pcDNA3.1(+) plasmid vector (Invitrogen), and a plasmid DNA for expression of human orexin type 2 receptor (pcDNA3.1(+)/hOX2R) was cloned. The plasmid DNA was introduced into CHO-K1 cell by an electroporation method, and human orexin type 2 receptor expressing clone cells were obtained by limiting dilution method by using G418 drug resistance as a selection marker.
# CHO cells forcibly expressing human OX2 receptor were seeded in each well of 384 well black transparent bottom plate (BD Falcon) at 10,000 cells/well, and cultured for one day in a 5% CO2 incubator at 37° C. After removal of the medium in the cell plate, assay buffer A containing a calcium indicator (HBSS (Thermo Fisher Scientific), 20 mM HEPES (Thermo Fisher Scientific), 0.1% BSA (Sigma-Aldrich), 2.5 μg/mL Fluo-4 AM (DOJINDO Chemical), 0.08% Pluronic F127 (DOJINDO Chemical), 1.25 mM probenecid (DOJINDO Chemical)) was added at 30 μL/well. The plate was stood for 30 min in a 5% CO2 incubator at 37° C., and further stood at room temperature for 30 min. A test compound prepared by diluting with assay buffer B (HBSS, 20 mM HEPES, 0.1% BSA) was added at 10 μL/well, and the fluorescence value was measured by FDSSμCELL (Hamamatsu Photonics K.K.) every one sec for 1 min, and thereafter every two sec for […]. The activity (%) of the test compound was calculated assuming that variation in the fluorescence value when DMSO was added instead of the test compound was 0%, and variation in the fluorescence value when orexin A (human) (PEPTIDE INSTITUTE, INC.) was added at the final concentration of 10 nM was 100%.
row,Compound,"OX2R agonist activity (3 μM, %) [%]"
1,"O=C([C@@H]1C[C@@]1(F)c1ccc(F)cc1-c1c(F)cccc1F)N1C[C@@H](F)[C@H]1CNS(=O)(=O)N1CCC1 [Example 446, N-({(2R,3R)-3-fluoro-1-[(1S,2S)-2-fluoro-2-(2′,5,6′-trifluoro[1,1′-biphenyl]-2-yl)cyclopropane-1-carbonyl]azetidin-2-yl}methyl)azetidine-1-sulfonamide]",100
2,"CS(=O)(=O)N[C@H]1CCN(C(=O)C2CC2(F)c2ccccc2-c2c(F)cccc2F)C1 (single isomer, unassigned) [Example 304, N-{(3S)-1-[(1S,2S)-2-(2′,6′-difluoro [1,1′-biphenyl]-2-yl)-2-fluorocyclopropane-1-carbonyl]pyrrolidin-3-yl}methanesulfonamide, or N-{(3S)-1-[(1R,2R)-2-(2′,6′-difluoro[1,1′-biphenyl]-2-yl)-2-fluorocyclopropane-1-carbonyl]pyrrolidin-3-yl}methanesulfonamide]",93
3,"CNS(=O)(=O)NC[C@@H]1[C@H](F)CN1C(=O)C1(COC)CC1c1ccc(F)cc1-c1c(F)cccc1F (stereo partly drawn) [Example 438, N-({(2R,3R)-3-fluoro-1-[(1R,2S)-1-(methoxymethyl)-2-(2′,5,6′-trifluoro[1,1′-biphenyl]-2-yl)cyclopropane-1-carbonyl]azetidin-2-yl}methyl)-N′-methylsulfuric diamide, or N-({(2R,3R)-3-fluoro-1-[(1S,2R)-1-(methoxymethyl)-2-(2′,5,6′-trifluoro[1,1′-biphenyl]-2-yl)cyclopropane-1-carbonyl]azetidin-2-yl}methyl)-N′-methylsulfuric diamide]",101
4,"COC[C@H](NS(C)(=O)=O)C1CCN1C(=O)[C@@H]1C[C@@]1(F)c1ccccc1-c1c(F)cccc1F (stereo partly drawn) [Example 419, N-[(1R)-1-{(2R)-1-[(1S,2S)-2-(2′,6′-difluoro[1,1′-biphenyl]-2-yl)-2-fluorocyclopropane-1-carbonyl]azetidin-2-yl}-2-methoxyethyl]methanesulfonamide, or N-[(1R)-1-{(2S)-1-[(1S,2S)-2-(2′,6′-difluoro[1,1′-biphenyl]-2-yl)-2-fluorocyclopropane-1-carbonyl]azetidin-2-yl}-2-methoxyethyl]methanesulfonamide]",104
5,"CS(=O)(=O)N[C@H]1CCCN(C(=O)C2CC2(F)c2ccccc2-c2c(F)cccc2F)CC1 (mixture of isomers) [Example 290, a mixture of N-{(4S)-1-[(1R,2R)-2-(2′,6′-difluoro[1,1′-biphenyl]-2-yl)-2-fluorocyclopropane-1-carbonyl]azepan-4-yl}methanesulfonamide and N-{(4S)-1-[(1S,2S)-2-(2′,6′-difluoro[1,1′-biphenyl]-2-yl)-2-fluorocyclopropane-1-carbonyl]azepan-4-yl}methanesulfonamide]",98
6,"CS(=O)(=O)NC1CCCN(C(=O)C2CC2c2ccc(C(F)F)cc2-c2c(F)cccc2F)C1 (racemic) [Example 230, a mixture of rac-N-[(3R)-1-{(1R,2R)-2-[5-(difluoromethyl)-2′,6′-difluoro[1,1′-biphenyl]-2-yl]cyclopropane-1-carbonyl}piperidin-3-yl]methanesulfonamide and rac-N-[(3S)-1-{(1R,2R)-2-[5-(difluoromethyl)-2′,6′-difluoro[1,1′-biphenyl]-2-yl]cyclopropane-1-carbonyl}piperidin-3-yl]methanesulfonamide]",91
7,"CS(=O)(=O)NC1CN(C(=O)C2CC2c2ccccc2-c2c(F)cccc2F)CC1(F)F (stereo not drawn) [Example 180, N-{1-[2-(2′,6′-difluoro[1,1′-biphenyl]-2-yl)cyclopropane-1-carbonyl]-4,4-difluoropyrrolidin-3-yl}methanesulfonamide optical isomer]",95

# Now from value to compound:
row,"OX2R agonist activity (3 μM, %) [%]",Compound
1,67,"CS(=O)(=O)NC1CCCN(C(=O)C2CC2c2ncccc2-c2c(F)cccc2F)C1 (racemic) [Example 189, a mixture of rac-N-[(3R)-1-{(1R,2R)-2-[3-(2,6-difluorophenyl)pyridin-2-yl]cyclopropane-1-carbonyl}piperidin-3-yl]methanesulfonamide and rac-N-[(3S)-1-{(1R,2R)-2-[3-(2,6-difluorophenyl)pyridin-2-yl]cyclopropane-1-carbonyl}piperidin-3-yl]methanesulfonamide]"
2,98,"C[C@@H]1C[C@H](NS(C)(=O)=O)CN1C(=O)[C@@H]1C[C@H]1c1ccccc1-c1c(F)cccc1F [Example 263, N-{(3S,5R)-1-[(1R,2R)-2-(2′,6′-difluoro[1,1′-biphenyl]-2-yl)cyclopropane-1-carbonyl]-5-methylpyrrolidin-3-yl}methanesulfonamide]"
3,96,"CS(=O)(=O)NC1COCCN(C(=O)C2CC2c2ccccc2-c2c(F)cccc2F)C1 (racemic) [Example 219, a mixture of rac-N-{(6R)-1-[(1R,2R)-2-(2′,6′-difluoro[1,1′-biphenyl]-2-yl)cyclopropane-1-carbonyl]-1,4-oxazepan-6-yl}methanesulfonamide and rac-N-{(6S)-4-[(1R,2R)-2-(2′,6′-difluoro[1,1′-biphenyl]-2-yl)cyclopropane-1-carbonyl]-1,4-oxazepan-6-yl}methanesulfonamide]"
4,106,"CN(C)S(=O)(=O)NC1CCCCN(C(=O)C2CC2c2ccccc2-c2c(F)cccc2F)C1 (racemic) [Example 162, a mixture of rac-N′-{(3R)-1-[(1R,2R)-2-(2′,6′-difluoro[1,1′-biphenyl]-2-yl)cyclopropane-1-carbonyl]azepan-3-yl}-N,N-dimethylsulfuric diamide and rac-N′-{(3S)-1-[(1R,2R)-2-(2′,6′-difluoro[1,1′-biphenyl]-2-yl)cyclopropane-1-carbonyl]azepan-3-yl}-N,N-dimethylsulfuric diamide]"
5,101,"CS(=O)(=O)NC1CCCN(C(=O)C2CC2c2c(F)cccc2-c2c(F)cccc2F)C1 (racemic) [Example 31, a mixture of rac-N-{(3R)-1-[(1R,2R)-2-(2′,3,6′-trifluoro[1,1′-biphenyl]-2-yl)cyclopropane-1-carbonyl]piperidin-3-yl}methanesulfonamide and rac-N-{(3S)-1-[(1R,2R)-2-(2′,3,6′-trifluoro[1,1′-biphenyl]-2-yl)cyclopropane-1-carbonyl]piperidin-3-yl}methanesulfonamide]"
6,110,"Cc1ccc(C2CC2C(=O)N2CCCC(NS(C)(=O)=O)C2)c(-c2c(F)cccc2F)c1 (racemic) [Example 166, a mixture of rac-N-{(3R)-1-[(1R,2R)-2-(2′,6′-difluoro-5-methyl[1,1′-biphenyl]-2-yl)cyclopropane-1-carbonyl]piperidin-3-yl}methanesulfonamide and rac-N-{(3S)-1-[(1R,2R)-2-(2′,6′-difluoro-5-methyl[1,1′-biphenyl]-2-yl)cyclopropane-1-carbonyl]piperidin-3-yl}methanesulfonamide]"
